Article PMC10397248, “A novel N^6-Deoxyadenine methyltransferase METL-9 modulates C. elegans immunity via dichotomous mechanisms” (Cell Research, 2023)
Changes are numbered by the printed parent chain.

Experiments:
[1] = target: mouse Mettl9 (recombinant GST-Mettl9) (Mus musculus, UniProt Q9EPL4); assay: in vitro DNA 6mA methylation, LC-MS/MS; assay type: biochemical; settings: biotin-ssDNA or bubbled DNA with GAGG motif 2 uM, SAM or d3-SAM 0.1 mM (which one only in supplement), pH 7.5, 2.5 mM MgCl2, 25 °C; methyl donor
[2] = target: T1, METL-9 (recombinant GST-METL-9) (Caenorhabditis elegans, UniProt Q22123, N172K/D274G); assay: in vitro DNA 6mA methylation, LC-MS/MS; assay type: biochemical; settings: biotin-ssDNA oligo 2 uM, d3-SAM 0.1 mM, HEPES pH 7.5, 2.5 mM MgCl2, 80 mM KCl, 20 °C; methyl donor; labelled compound
T1 sequence (Q22123 1-311 N172K/D274G): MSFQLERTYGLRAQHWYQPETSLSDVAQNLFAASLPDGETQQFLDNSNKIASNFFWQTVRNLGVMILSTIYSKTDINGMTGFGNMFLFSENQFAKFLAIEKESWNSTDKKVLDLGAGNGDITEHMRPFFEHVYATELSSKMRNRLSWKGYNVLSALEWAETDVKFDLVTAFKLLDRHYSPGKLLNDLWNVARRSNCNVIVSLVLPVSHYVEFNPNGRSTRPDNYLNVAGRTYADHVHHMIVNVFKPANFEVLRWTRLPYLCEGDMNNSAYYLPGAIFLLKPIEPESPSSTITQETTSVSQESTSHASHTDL

purified protein = substrate: C[S+](CC[C@H](N)C(=O)O)C[C@H]1O[C@@H](n2cnc3c(N)ncnc32)[C@H](O)[C@@H]1O; assay: purified protein; settings: ssDNA oligo 5 uM, varied d3-SAM, HEPES pH 7.5, 2.5 mM MgCl2, 80 mM KCl, 20 °C, methyl donor, labelled compound

Chain of mouse Mettl9 (recombinant GST-Mettl9) (Q9EPL4 whole entry): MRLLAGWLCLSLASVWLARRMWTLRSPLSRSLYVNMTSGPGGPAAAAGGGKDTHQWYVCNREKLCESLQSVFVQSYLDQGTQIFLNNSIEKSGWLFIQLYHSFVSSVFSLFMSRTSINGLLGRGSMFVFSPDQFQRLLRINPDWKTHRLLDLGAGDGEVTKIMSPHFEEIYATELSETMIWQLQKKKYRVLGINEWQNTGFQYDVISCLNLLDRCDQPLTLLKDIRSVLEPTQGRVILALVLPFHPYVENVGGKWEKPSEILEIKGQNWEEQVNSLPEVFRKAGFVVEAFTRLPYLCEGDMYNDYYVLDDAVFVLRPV

Q: Which “in vitro DNA 6mA methylation, LC-MS/MS” value [1] does the source give for `C[S+](CC[C@H](N)C(=O)O)C[C@H]1O[C@@H](n2cnc3c(N)ncnc32)[C@H](O)[C@@H]1O` (stereo partly shown) [SAM] here?
A: mouse Mettl9 protein showed 6mA methyltransferase activity towards ssDNA and bubbled DNA

Q: Which “in vitro DNA 6mA methylation, LC-MS/MS” value [2] does the source give for `C[S+](CC[C@H](N)C(=O)O)C[C@H]1O[C@@H](n2cnc3c(N)ncnc32)[C@H](O)[C@@H]1O` (stereo partly shown) [d3-SAM] here?
A: double mutant (M8 + M10, metl-9^mut) almost completely abolished the 6mA methyltransferase activity of METL-9

B1: METL-9 (recombinant GST-METL-9) (Caenorhabditis elegans) (protein)
chain: T1 sequence (Q22123 1-311 N172K/D274G) with K172N, G274D
Q: With B1 as the molecule, how does the Km (purified protein) read?
A: 37.69 ± 3.75 µM

Q: What about the kcat (purified protein) of the same molecule?
A: 0.00131 ± 5.83e-05 s⁻¹
